Key:
[1] = test system: HepG2, Hela, MCF-7, A549, HT-29 and SSC-4 cell lines; experiment: MTT assay, panel of six cancer cell lines; type: cell-based; conditions: Homo sapiens; range over six cell lines; read-out: IC50 values against a panel of cancer cell lines
Experimental: The in vitro anticancer activities of the prepared compounds against HepG2, Hela, MCF-7, A549, HT-29 and SSC-4 cell lines were evaluated as described in the literature. Target tumor cells were grown to log phase in DMEM medium supplemented with 10% fetal bovine serum. After reaching a dilution of 1 × 10^5 cells Ml^−1 with the medium, 100 μL of the obtained cell suspension was added to each well of 96-well culture plates. Subsequently, incubation was performed at 37 °C in 5% CO2 atmosphere for 12 h before the cytotoxicity assessment. Tested samples at preset concentrations were added to 6 wells with CA-4 being employed as a positive reference. After 48 h exposure period, 25 μL of PBS containing 2.5 mg mL^−1 of MTT (Sigma, USA) was added to each well. After 4 h, the medium was replaced by 150 μL DMSO to dissolve the purple formazan crystals produced. The absorbance at 570 nm of each well was measured with Synergy™ 2 Multi-Mode Microplate Reader. Cell viability (%) was calculated using the following equation: cell viability (%) = (Atreatment/Acontrol) × 100%. The data represented the mean of three independent experiments in triplicate and were expressed as means ± SD.

[2] = test system: Bax, PARP, Bcl-2, Caspase3 in A549 cells; experiment: Western blot of apoptosis-related proteins; type: cell-based, human
Experimental: (§1) Total cellular proteins are extracted with lysis buffer (50 mmol/l Tris [pH 7.4], 150 mmol/l NaCl, 1% Triton X-100, 1% deoxycholicphenyl methylsulfonyl fluoride, 1 mg/ml aprotinin, 5.0 mmol/l sodium pyrophosphate, […] leupeptin, 0.1 mmol/l phenylmethylsulfonyl fluoride, and 1 mmol/l DTT). Protease inhibitors are added immediately before use. The cells are harvested at the end of treatment and extracted for western blot analysis as described previously. After washing twice with PBS, the cultured cells were collected and lysed in lysis buffer (100 mmol/l Tris-Cl, pH 6.8, 4% (m/v) SDS, 20% (v/v) glycerol, 200 mmol/l β-mercaptoethanol, 1 mmol/l phenylmethylsulfonyl fluoride, and […] aprotinin). The lysates were centrifuged at 13,000 × g for 15 min at 4 °C. The concentration of total proteins was measured using the BCA assay method with Varioskan spectrofluorometer and spectrophotometer (Thermo) at 562 nm. Protein samples were separated with 15% SDS-PAGE and transferred onto the polyvinyldifluoride (PVDF) membranes (Millipore, IPVH 304 F0). Immune complexes were formed by incubation of proteins with primary antibodies overnight at 4 °C followed by IRDye^TM 800 conjugated second antibody for 1 hour at 37 °C. Immunoreactive protein bands were detected with an Odyssey Scanning System (LI-COR Biosciences, 9201-03). Antibodies: primary antibodies of cyclin B1, Cdc2, p-Cdc2 (Thr14/Tyr15), Cdc25C, and p21WAF1/Cip1 were all obtained from EPITOMICS (Abcam, Cambridge, UK); antibodies of Bax and Bcl-2 were obtained from Bioworld (Bioworld Technology, Inc., MN, USA); antibodies of caspase-3, and PARP were all obtained from Santa Cruz (Santa Cruz, CA); and antibody of GAPDH was from Boster (Wuhan, China). The secondary antibodies peroxidase-conjugated affinipure Goat Anti-Mouse IgG (H + L) (111-035-003), peroxidase-conjugated affinipure Goat Anti-Rabbit IgG (H + L) (111-035-003) were obtained from Jackson Immuno Research Laboratories, Inc. (USA).

[3] = test system: Cyclin B1, Cdc25c, Cdc2, P21 in A549 cells; experiment: Western blot of G2/M-related proteins; type: cell-based, human; conditions: A549, 0.5-2.0 μM 48 h; 3.0 μM 12-48 h
Experimental: as §1

[4] = test system: interphase microtubules of A549 cells; experiment: Confocal microscopy assay of microtubule morphology; type: cell-based, human; conditions: A549, 1.0 μM, 48 h
Experimental: After incubating for 48 h, A549 cells were washed with PBS for three times and fixed with 4% paraformaldehyde for 20 min, permeabilized with cold methanol for another 10 min. After that, the cells were blocked with 5% BSA for 1 h. Subsequently, the cells were washed with PBS, and incubated with anti-tubulin antibody in 3% BSA (1:200 Cytoskeleton, Inc.) overnight at 4 °C. After being washed with PBS for three times, each cover slip was added 200 μL of Cy3-labeled goat anti-mouse IgG (H + L) in 3% BSA (1:500, Cytoskeleton, Inc.) and incubated for 1 h at room temperature. At last, A549 cells was stained with 200 μL of DAPI for 5 min and observed under an confocal microscope (Olympus, USA).

[5] = test system: A549 xenograft tumor; experiment: In vivo anti-tumor activity, A549 xenograft; set-up: species or system BALB/c nude mice; conditions: for average weight of the excised tumors: control group 1.802 g; for tumor growth reduction versus vehicle at end of observation: intraperitoneal, every other day
Experimental: Mice were subcutaneously inoculated with injections of 5.0 × 10^6 cells/nude mice. After 12–14 days, tumor sizes were determined using micrometer calipers, and then nude mice with similar tumor volume (~100 mm^3, eliminate mice with tumors that are too large or too small) were randomly divided them into four groups (with six nude mice/group). […] Both drugs, as well as the vehicle control, were administered every other day for the entire period of observation.
Male BALB/c nude mice, five weeks old and weighing 18–22 g, were supplied by Shanghai Laboratory Animal Limited Company. The mice were raised in air-conditioned rooms under controlled lighting (12 h light-dark cycle at 24 °C) and were fed with standard laboratory food and water ad libitum. Before injection into the mice, the A549 cells were harvested by trypsinization and washed three times with cold serum-free medium and then injected in a total volume of 0.1 mL using a 1 mL latex-free syringe (BD) within 30 min of harvest. Mice were inoculated subcutaneously with A549 cells (5.0 × 10^6) on their shoulders. […] The control group received 0.9% normal saline. Tumor size was measured once every 2 days in two per-pendicular dimensions with Vernier calipers and converted to tumor volume (TV) using the formula: (ab^2)/2, where a and b refer to the longer and shorter dimensions, respectively. The body weight of the animals was measured twice a week to assess toxicity of the treatments at the same time as the tumor dimension measurement and the mortality was monitored daily. After the treatments for eight weeks, the animals were euthanized by cervical dislocation. This study conformed to the Guide for the Care and Use of Laboratory Animals as published by the US National Institutes of Health and was approved by the Institutional Ethics Review Board of Nanjing University.

Structure (SMILES): COc1cc(/C=N/NC(=O)c2cn(Cc3ccccc3)c3ccccc23)cc(OC)c1OC [Compound 7]
- IC50 [1]: 0.08 to 35.6 µM
- level of Bax ([2]; A549, 0.5, 1 and 2 μM, 48 h): efficiently up-regulated
- level of anti-apoptotic proteins (Bcl-2, Bcl-xl) ([2]; A549, 0.5, 1 and 2 μM, 48 h): down-regulated
- cleaved caspase-3 and PARP ([2]; A549, 48 h): up regulation
- cdc25c expression [3]: down-regulated in a dose-dependent and time-dependent manner
- cyclinB1 expression [3]: down-regulated in a dose-dependent and time-dependent manner
- p21 expression [3]: increased
- microtubule morphology [4]: disorganized interphase microtubules
- average weight of the excised tumors ([5]; 20 mg/kg group): 0.951 g
- tumor growth reduction versus vehicle at end of observation ([5]; 20 mg/kg): 47%
- average weight of the excised tumors ([5]; 30 mg/kg group): 0.553 g
- tumor growth reduction versus vehicle at end of observation ([5]; 30 mg/kg): 70%

— article PMC4853715, “Design, Synthesis and Antitumor Activity of Novel link-bridge and B-Ring Modified Combretastatin A-4 (CA-4) Analogues as Potent Antitubulin Agents” (Scientific Reports, 2016)
